Data set [1] is described as follows: Photochromic properties of polymer (2 mm thick) containing the chromene compound, xenon lamp irradiation 120 seconds. It counts as physicochemical. To be noted: for Color density ε(120)-ε(0): 120 seconds irradiation, 20° C.±1° C.; for Color density ε(120)-ε(0) / ε(0): absorbancy of the polymer not irradiated (initial color): at λmax; for Color fading rate t1/2: time until absorbancy decreases to one-half of [ε(120)-ε(0)]: after 120 seconds irradiation; for Maximum absorption wavelength λMax (developed color tone): polymer after developing color. Also on record: key to Color density ε(120)-ε(0): absorbance at λmax after 120 s irradiation minus before, ε(120)-ε(0). The method, then: (§1) 0.05 Parts of the chromene compound obtained in Example 1 was added to 70 parts of a tetraethylene glycol dimethacrylate, 15 parts of a triethylene glycol dimethacrylate, 10 parts of a glycidyl methacrylate and 5 parts of a 2-hydroethyl methacrylate, and was mixed to a sufficient degree. The mixture solution was poured into a mold constituted by a glass plate and a gasket made from an ethylene/vinyl acetate copolymer and then polymerized. The polymerization was conducted by using an air furnace while gradually raising the temperature up to 30° C. to 90° C. over a period of 18 hours, the temperature being maintained at 90° C. for two hours. After the polymerization, the polymer was taken out from the glass mold.
The obtained polymer (2 mm thick) was irradiated with light from a xenon lamp L-2480 (300 W) SHL-100 manufactured by Hamamatsu Photonics Co. through an Aero Mass filter (manufactured by Corning Co.) for 120 seconds under the conditions of 20° C.±1° C., beam intensities of 365 nm=2.4 mW/cm^2 and […]=24 μW/cm^2 on the polymer surface to develop color and to measure photochromic properties. The photochromic properties were expressed as described below.
Maximum absorption wavelength (λmax): λmax of the polymer after it has developed color was found by using a spectrophotometer (instantaneous multi-channel photodetector MCPD1000) manufactured by Otsuka Denshi Kogyo Co.
ε(120): Absorbancy of the polymer using light of a maximum absorption wavelength after it was irradiated under the above-mentioned conditions for 120 seconds.
ε(0): Absorbancy of the polymer that has not been irradiated using light of a wavelength same as the maximum absorption wavelength of light with which the polymer was irradiated.
ε(120)-ε(0): Color density
(§2) Color fading rate [t1/2 ]: Time required by the polymer irradiated for 120 seconds until the absorbancy decreases down to one-half of [ε(120)-ε(0)]. Durability [T1/2 ]: Time required until the absorbency at the maximum absorption wavelength decreases down to 1/2 of the initial absorbency as measured by using a xenon fadometer FAC-25AX-HC manufactured by Suga Shikenki Co.
(§3) The photochromic polymers were obtained in the same manner as described above but using the compounds obtained in Examples 2 to 33 as chromene compounds. For the purpose of comparison, properties of the compounds represented by the following formulas (A), (B), (D) and (E) were also shown in Table 3. [drawing 110]

Data set [2] in a line: Durability T1/2 by xenon fadometer FAC-25AX-HC. It counts as physicochemical. The note with it: in polymer. How it is done:
as §1, §2, §3

For `CC(C)(C)Oc1ccc2ccc3c(c2c1)C=CC(c1cccs1)(c1ccc2ccccc2c1Cl)O3` (stereo not shown) [Compound 21], in data set [1], the “Color density ε(120)-ε(0)” value is recorded as 1.35, the “Color fading rate t1/2: time until absorbancy decreases to one-half of [ε(120)-ε(0)]” value came out at 1.17 min, the “ε(0): absorbancy of the polymer not irradiated (initial color)” value worked out at 0.05 and the “Maximum absorption wavelength λMax (developed color tone)” value (“Maximum absorption wavelength λMax” for short) is listed as 450 nm. Moreover, the “Durability T1/2: time until absorbancy at maximum absorption wavelength decreases to 1/2 of the initial” value in data set [2] was determined as 470 h.

As to `N#Cc1cc(Cl)c(C2(c3ccoc3)C=Cc3c(ccc4ccccc34)O2)s1` (stereo not shown) [Compound 24], in data set [1], the “Color density ε(120)-ε(0)” value is on record as 1.12, the “Color fading rate t1/2: time until absorbancy decreases to one-half of [ε(120)-ε(0)]” value came to 1.08 min, the “ε(0): absorbancy of the polymer not irradiated (initial color)” value amounted to 0.05 and the “Maximum absorption wavelength λMax” value is given as 458 nm. In addition, the “Durability T1/2: time until absorbancy at maximum absorption wavelength decreases to 1/2 of the initial” value in data set [2] was 480 h.

For `C1=CC(c2ccco2)(c2cc3ccccc3o2)Oc2ccc3ccccc3c21` (stereo not shown) [Compound 25], in data set [1], the “Color density ε(120)-ε(0)” value was determined as 1.23, the “Color fading rate t1/2: time until absorbancy decreases to one-half of [ε(120)-ε(0)]” value stood at 0.983 min, the “ε(0): absorbancy of the polymer not irradiated (initial color)” value was determined as 0.06 and the “Maximum absorption wavelength λMax” value is reported as 492 nm. Also, the “Durability T1/2: time until absorbancy at maximum absorption wavelength decreases to 1/2 of the initial” value in data set [2] worked out at 540 h.

For `C1=CC(c2ccco2)(c2csc3ccccc23)Oc2ccc3ccccc3c21` (stereo not shown) [Compound 26], in data set [1], the “Color density ε(120)-ε(0)” value worked out at 1.05, the “Color fading rate t1/2: time until absorbancy decreases to one-half of [ε(120)-ε(0)]” value was found to be 0.833 min, the “ε(0): absorbancy of the polymer not irradiated (initial color)” value is 0.06 and the “Maximum absorption wavelength λMax” value is recorded as 460 nm. For the same compound, in data set [2], the “Durability T1/2: time until absorbancy at maximum absorption wavelength decreases to 1/2 of the initial” value is 510 h.

In the case of `COc1cc2c(c3ccccc13)C=CC(c1cc(Cl)c3ccccc3c1)(c1cc3ccccc3s1)O2` (stereo not shown) [Compound 29], in data set [1], the “Color density ε(120)-ε(0)” value is listed as 1.30, the “Color fading rate t1/2: time until absorbancy decreases to one-half of [ε(120)-ε(0)]” value is 1.37 min, the “ε(0): absorbancy of the polymer not irradiated (initial color)” value came out at 0.12 and the “Maximum absorption wavelength λMax” value was 440 nm. Also, in data set [2], the “Durability T1/2: time until absorbancy at maximum absorption wavelength decreases to 1/2 of the initial” value was 480 h.

For the compound `Fc1c(C2(c3ccsc3)C=Cc3c(ccc4ccccc34)O2)ccc2ccccc12` (stereo not shown) [Compound 30], in data set [1], the “Color density ε(120)-ε(0)” value was determined as 1.18, the “Color fading rate t1/2: time until absorbancy decreases to one-half of [ε(120)-ε(0)]” value was found to be 1.17 min, the “ε(0): absorbancy of the polymer not irradiated (initial color)” value was determined as 0.04 and the “Maximum absorption wavelength λMax” value was found to be 450 nm. For the same compound, the “Durability T1/2: time until absorbancy at maximum absorption wavelength decreases to 1/2 of the initial” value in data set [2] stood at 495 h.

With `Fc1c(C2(c3ccco3)C=Cc3c(ccc4ccccc34)O2)ccc2ccccc12` (stereo not shown) [Compound 31], in data set [1], the “Color density ε(120)-ε(0)” value amounted to 1.44, the “Color fading rate t1/2: time until absorbancy decreases to one-half of [ε(120)-ε(0)]” value was 1.33 min, the “ε(0): absorbancy of the polymer not irradiated (initial color)” value is 0.06 and the “Maximum absorption wavelength λMax” value was found to be 480 nm. Further, the “Durability T1/2: time until absorbancy at maximum absorption wavelength decreases to 1/2 of the initial” value in data set [2] was 490 h.

With `Fc1occc1C1(c2ccc3ccccc3c2)C=Cc2c(ccc3ccccc23)O1` (stereo not shown) [Compound 32], in data set [1], the “Color density ε(120)-ε(0)” value is 1.28, the “Color fading rate t1/2: time until absorbancy decreases to one-half of [ε(120)-ε(0)]” value is 1.08 min, the “ε(0): absorbancy of the polymer not irradiated (initial color)” value worked out at 0.05 and the “Maximum absorption wavelength λMax” value stood at 450 nm. For the same compound, the “Durability T1/2: time until absorbancy at maximum absorption wavelength decreases to 1/2 of the initial” value in data set [2] worked out at 490 h.

As for `Fc1cc2ccccc2cc1C1(c2cccs2)C=Cc2c(ccc3ccccc23)O1` (stereo not shown) [Compound 33], in data set [1], the “Color density ε(120)-ε(0)” value came out at 1.11, the “Color fading rate t1/2: time until absorbancy decreases to one-half of [ε(120)-ε(0)]” value worked out at 1.13 min, the “ε(0): absorbancy of the polymer not irradiated (initial color)” value was determined as 0.04 and the “Maximum absorption wavelength λMax” value was found to be 460 nm. In data set [2], the “Durability T1/2: time until absorbancy at maximum absorption wavelength decreases to 1/2 of the initial” value is 495 h.

In the case of `C1=CC(c2ccccc2)(c2cccs2)Oc2ccc3ccccc3c21` (stereo not shown) [D, reference compound], in data set [1], the “Color density ε(120)-ε(0)” value came out at 0.51, the “Color fading rate t1/2: time until absorbancy decreases to one-half of [ε(120)-ε(0)]” value was 0.7 min, the “ε(0): absorbancy of the polymer not irradiated (initial color)” value is listed as 0.04 and the “Maximum absorption wavelength λMax” value is reported as 466 nm. Also, the “Durability T1/2: time until absorbancy at maximum absorption wavelength decreases to 1/2 of the initial” value in data set [2] was found to be 490 h.

Turning to `Cc1csc(C2(c3scc(C)c3C)C=Cc3c(ccc4ccccc34)O2)c1C` [E, reference compound], in data set [1], the “Color density ε(120)-ε(0)” value is 0.86, the “Color fading rate t1/2: time until absorbancy decreases to one-half of [ε(120)-ε(0)]” value was 1.25 min, the “ε(0): absorbancy of the polymer not irradiated (initial color)” value is on record as 0.26 and the “Maximum absorption wavelength λMax” value came to 514 nm. Further, the “Durability T1/2: time until absorbancy at maximum absorption wavelength decreases to 1/2 of the initial” value in data set [2] worked out at 485 h.

The values above are taken from patent publication US5808100A, “Chromene compounds and photochromic materials” (Tokuyama Corporation, priority 1995, dated 1998).
